Test results from patent publication US20200017495A1, “NOVEL HETEROCYCLIC COMPOUNDS AND THEIR USE IN PREVENTING OR TREATING BACTERIAL INFECTIONS” (priority 2017, published 2020).

Legend:
Assay in all cases: MIC of compounds alone and combined with antibacterials, broth microdilution (CLSI)
Assay type in all cases: cell-based
[1] = tested on: Citrobacter freundii (CFR) isolates
In short: (§1)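 Antibacterial MICs in combination were determined at every compound concentration tested, alongside compound MICs alone. Bacteria grew in cation-adjusted Mueller-Hinton broth starting from 5.10^5 CFU/mL, incubated at 35° C for 16-20 h, and endpoints were the lowest concentrations with no visible growth.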

[2] = tested on: Morganella morganii (MMO) isolates
In short: as §1

[3] = tested on: Citrobacter murliniae (CMU) isolates; details: for MIC ATB in combination: CMU 210102
In short: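 Visual read-out: MIC is the lowest concentration stopping growth, and in combinations the lowest antibacterial concentration doing so at each fixed compound level. Inoculum 5.10^5 CFU/mL log-phase cells in ca-MHB, 35° C, 16-20 h, ambient air.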

C=CC1=C(C(=O)O)N2C(=O)[C@@H](NC(=O)/C(=N\OCC(=O)O)c3csc(N)n3)[C@H]2SC1 [FIX, Cefixime]
MIC ATB in combination ([1]; CFR UFR146, AF3 @ 8 μg/mL): 1 µg/mL | MIC ATB in combination ([1]; CFR UFR146, CLA @ 4 μg/mL): 64 µg/mL | MIC ATB in combination ([1]; CFR UFR248, AF2 @ 8 μg/mL): <0.25 µg/mL | MIC ATB in combination ([1]; CFR UFR248, AF3 @ 8 μg/mL): <=0.25 μg/mL | MIC ATB in combination ([1]; CFR UFR248, CLA @ 4 μg/mL): 4 µg/mL | MIC ATB in combination ([1]; CFR UFR249, AF2 @ 8 μg/mL): <=0.25 μg/mL | MIC ATB in combination ([1]; CFR UFR249, AF3 @ 8 μg/mL): <=0.25 μg/mL | MIC ATB in combination ([1]; CFR UFR249, CLA @ 4 μg/mL): 2 µg/mL | MIC ATB in combination ([1]; CFR UFR250, AF2 @ 8 μg/mL): <0.25 µg/mL | MIC ATB in combination ([1]; CFR UFR250, AF3 @ 8 μg/mL): <0.25 µg/mL | MIC ATB in combination ([1]; CFR UFR250, CLA @ 4 μg/mL): 2 µg/mL | MIC ([1]; strain CFR UFR10, genotype OXA-48): >128 µg/mL | MIC ([1]; strain CFR UFR11, genotype TEM-1, OXA-1, OXA-48): 32 µg/mL | MIC ([1]; strain CFR UFR37, genotype TEM-1, CTX-M-15, NDM-1): >128 µg/mL | MIC ([1]; strain CFR UFR83, genotype TEM-3, AmpC): >128 µg/mL | MIC ([1]; strain CFR UFR146, genotype TEM-1, KPC-2): 64 µg/mL | MIC ([1]; strain CFR UFR147, genotype TEM-1, CTX-M-15, OXA-1, OXA-181, OXA-10, OXA-9, NDM-1, ArmA, dfrA12, aadA2, antibiotic alone): >128 µg/mL | MIC ATB in combination ([1]; strain CFR UFR147, with AF2 @ 8 μg/mL): <0.25 µg/mL | MIC ATB in combination ([1]; strain CFR UFR147, with AF3 @ 8 μg/mL): <0.25 µg/mL | MIC ATB in combination ([1]; strain CFR UFR147, with CLA @ 4 μg/mL): >128 µg/mL | MIC ([1]; strain CFR UFR148, genotype TEM-1, TEM-2, CTX-M-15, NDM-1, antibiotic alone): >128 µg/mL | MIC ATB in combination ([1]; strain CFR UFR148, with AF2 @ 8 μg/mL): <0.25 µg/mL | MIC ATB in combination ([1]; strain CFR UFR148, with AF3 @ 8 μg/mL): <0.25 µg/mL | MIC ATB in combination ([1]; strain CFR UFR148, with CLA @ 4 μg/mL): >128 µg/mL | MIC ([1]; strain CFR UFR248, genotype CTX-M-15): >128 µg/mL | MIC ([1]; strain CFR UFR249, genotype TEM-1, CTX-M-15): >128 µg/mL | MIC ([1]; strain CFR UFR250, compound alone): >128 µg/mL | MIC ([1]; strain CFR UFR250, genotype TEM-1, SHV-28, CTX-M-15): >128 µg/mL | MIC ([1]; strain CFR UFR251, genotype SHV-11, VIM-1, antibiotic alone): >128 µg/mL | MIC ATB in combination ([1]; strain CFR UFR251, with AF2 @ 8 μg/mL): <0.25 µg/mL | MIC ATB in combination ([1]; strain CFR UFR251, with AF3 @ 8 μg/mL): <0.25 µg/mL | MIC ATB in combination ([1]; strain CFR UFR251, with CLA @ 4 μg/mL): >128 µg/mL | MIC ([1]; strain CFR UFR252, genotype VIM-2, antibiotic alone): >128 µg/mL | MIC ATB in combination ([1]; strain CFR UFR252, with AF2 @ 8 μg/mL): >128 µg/mL | MIC ATB in combination ([1]; strain CFR UFR252, with AF3 @ 8 μg/mL): >128 µg/mL | MIC ATB in combination ([1]; strain CFR UFR252, with CLA @ 4 μg/mL): >128 µg/mL | MIC ([1]; strain CFR UFR253, genotype TEM-1, SHV-12, OXA-48): >128 µg/mL | MIC ATB in combination ([1]; strain CFR UFR253, with AF2 @ 8 μg/mL): 1 µg/mL | MIC ATB in combination ([1]; strain CFR UFR253, with AF3 @ 8 μg/mL): 8 µg/mL | MIC ATB in combination ([1]; strain CFR UFR253, with CLA @ 4 μg/mL): >128 µg/mL | MIC ([1]; strain CFR UFR254, genotype VEB-1b, OXA-48, qnrA): 32 µg/mL | MIC ATB in combination ([1]; strain CFR UFR254, with AF2 @ 8 μg/mL): <=0.25 μg/mL | MIC ATB in combination ([1]; strain CFR UFR254, with AF3 @ 8 μg/mL): 0.5 µg/mL | MIC ATB in combination ([1]; strain CFR UFR254, with CLA @ 4 μg/mL): 16 µg/mL | MIC ATB in combination ([2]; MMO 200321, AF2 @ 8 μg/mL): 1 µg/mL | MIC ATB in combination ([2]; MMO 200321, AF3 @ 8 μg/mL): 1 µg/mL | MIC ATB in combination ([2]; MMO 200321, CLA @ 4 μg/mL): 32 µg/mL | MIC ATB in combination ([2]; MMO UFR144, AF2 @ 8 μg/mL): 1 µg/mL | MIC ATB in combination ([2]; MMO UFR144, AF3 @ 8 μg/mL): 0.5 µg/mL | MIC ATB in combination ([2]; MMO UFR144, CLA @ 4 μg/mL): 32 µg/mL | MIC ATB in combination ([2]; MMO UFR240, AF2 @ 8 μg/mL): <=0.25 μg/mL | MIC ATB in combination ([2]; MMO UFR240, AF3 @ 8 μg/mL): <=0.25 μg/mL | MIC ATB in combination ([2]; MMO UFR240, CLA @ 4 μg/mL): 8 µg/mL | MIC ATB in combination ([2]; MMO UFR241, AF2 @ 8 μg/mL): 2 µg/mL | MIC ATB in combination ([2]; MMO UFR241, AF3 @ 8 μg/mL): 0.5 µg/mL | MIC ATB in combination ([2]; MMO UFR241, CLA @ 4 μg/mL): 32 µg/mL | MIC ATB in combination ([2]; MMO UFR242, AF2 @ 8 μg/mL): <=0.25 μg/mL | MIC ATB in combination ([2]; MMO UFR242, AF3 @ 8 μg/mL): 1 µg/mL | MIC ATB in combination ([2]; MMO UFR242, CLA @ 4 μg/mL): 64 µg/mL | MIC ATB in combination ([2]; MMO UFR243, AF2 @ 8 μg/mL): 0.5 µg/mL | MIC ATB in combination ([2]; MMO UFR243, AF3 @ 8 μg/mL): <=0.25 μg/mL | MIC ATB in combination ([2]; MMO UFR243, CLA @ 4 μg/mL): 32 µg/mL | MIC ATB in combination ([2]; MMO UFR244, AF2 @ 8 μg/mL): <=0.25 μg/mL | MIC ATB in combination ([2]; MMO UFR244, AF3 @ 8 μg/mL): <=0.25 μg/mL | MIC ATB in combination ([2]; MMO UFR244, CLA @ 4 μg/mL): 8 µg/mL | MIC ATB in combination ([2]; MMO UFR245, AF2 @ 8 μg/mL): 1 µg/mL | MIC ATB in combination ([2]; MMO UFR245, AF3 @ 8 μg/mL): <=0.25 μg/mL | MIC ATB in combination ([2]; MMO UFR245, CLA @ 4 μg/mL): 64 µg/mL | MIC ATB in combination ([2]; MMO UFR246, AF2 @ 8 μg/mL): 1 µg/mL | MIC ATB in combination ([2]; MMO UFR246, AF3 @ 8 μg/mL): 0.5 µg/mL | MIC ATB in combination ([2]; MMO UFR246, CLA @ 4 μg/mL): 64 µg/mL | MIC ATB in combination ([2]; MMO UFR247, AF2 @ 8 μg/mL): <=0.25 μg/mL | MIC ATB in combination ([2]; MMO UFR247, AF3 @ 8 μg/mL): <=0.25 μg/mL | MIC ATB in combination ([2]; MMO UFR247, CLA @ 4 μg/mL): 32 µg/mL | MIC ([2]; strain MMO 200321, genotype TEM-1, CTX-M-15, OXA-1): >128 µg/mL | MIC ([2]; strain MMO UFR144, genotype TEM-1, CTX-M-15): >128 µg/mL | MIC ATB in combination ([2]; strain MMO UFR145, with AF2 @ 8 μg/mL): >128 µg/mL | MIC ATB in combination ([2]; strain MMO UFR145, with AF3 @ 8 μg/mL): >128 µg/mL | MIC ATB in combination ([2]; strain MMO UFR145, with CLA @ 4 μg/mL): >128 µg/mL | MIC ([2]; strain MMO UFR240, genotype CTX-M-9): 1 µg/mL | MIC ([2]; strain MMO UFR241, genotype TEM-1, CTX-M-15): >128 µg/mL | MIC ([2]; strain MMO UFR242, genotype TEM-52): 1024 µg/mL | MIC ([2]; strain MMO UFR243, genotype DHA-1): 8 µg/mL | MIC ([2]; strain MMO UFR244, genotype DHA-1): 4 µg/mL | MIC ([2]; strain MMO UFR245, genotype DHA-1): 32 µg/mL | MIC ([2]; strain MMO UFR246, genotype DHA-1): 32 µg/mL | MIC ([2]; strain MMO UFR247, genotype DHA-1): 16 µg/mL | MIC ATB in combination ([3]; AF2 @ 8 μg/mL): >128 µg/mL | MIC ATB in combination ([3]; AF3 @ 8 μg/mL): >128 µg/mL | MIC ATB in combination ([3]; CLA @ 4 μg/mL): >128 µg/mL | MIC ([3]; strain CMU 210102, genotype VIM-4): >128 µg/mL
